Data from patent publication US10745384B2, “Indazole derivatives as αv integrin antagonists” (BRISTOL-MYERS SQUIBB COMPANY, priority 2016, dated 2020).
Where a name gives a salt, the structure may show the parent alone.

Experiments:
human αVβ6 = target: T1, human αVβ6 (Homo sapiens, UniProt P06756+P18564); test: human αVβ6 HTRF binding assay; conditions: recombinant human αVβ6 integrin, FITC-conjugated fibronectin
T1 construct: purchased R & D systems 3817-AV
How it was run: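 HTRF binding in 20 mM Tris pH 7.4 with 1 mM MgCl2, 1 mM MnCl2, 0.01% Tween 20 and 0.01% BSA. For αVβ6, biotinylated integrin (1.25 nM) and FITC-fibronectin (5 nM) were incubated 1 h at RT, then streptavidin-terbium (0.625 nM) was added overnight in the dark. An SPA-based fibronectin binding format was an alternative.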

human αVβ1 = human αVβ1 (Homo sapiens, UniProt P05556+P06756); test: human αVβ1 HTRF binding assay
Protocol: (§1) All binding assays used the HTRF (homogeneous time resolved fluorescence) technology from Cisbio International, therefore all assays are described as HTRF binding assays. The assay results for the Examples are listed above together with the characterization data. The HTRF binding assays are established for the following integrins: human αVβ6, human αVβ1, human αVβ3, human αVβ5, and human αVβ8. All assays used the following assay buffer: 20 mM Tris, pH 7.4, 1 mM MgCl2, 1 mM MnCl2, 0.01% Tween 20, and 0.01% BSA. Alternatively, a SPA-based assay was used for evaluation of receptor binding.
(§2) The following describes the components and a representative procedure for the human αVβ6 HTRF binding assay: Recombinant human αVβ6 Integrin (R & D systems, 3817-AV) was biotinylated. Biotinylated human αVβ6 Integrin was added to assay vessel at a final concentration of 1.25 nM. FITC-conjugated fibronectin (Cytoskeleton, FNR02) was then added at the final concentration of 5 nM. The mixture was centrifuged at 600 rpm for three minutes using Thermo Fisher Heraeus Multifuge X3 centrifuge and then incubated at room temperature for an hour. Streptavidin Terbium (Cisbio international 610STLB) was then added at the final concentration of 0.625 nM. The resulting mixture was centrifuged at 600 rpm for three minutes using Thermo Fisher Heraeus Multifuge X3 centrifuge and then incubated at room temperature overnight in dark before reading HTRF signals.
The SPA-based assay was carried out according to the protocol and procedures similar to the ones described in the following reference with appropriate modifications to agents and ligands which are readily understood by one skilled in the art: Pachter J A, Zhang R, Mayer-Ezell R., “Scintillation proximity assay to measure binding of soluble fibronectin to antibody-captured αVβ1 integrin” Anal Biochem. 1995 Sep. 1; 230(1):101-7.

human αVβ3 = human αVβ3 (Homo sapiens, UniProt P05106+P06756); test: human αVβ3 HTRF binding assay
Protocol: as §1
as §2, with “signals. […]” for “signals.”

human αVβ5 = human αVβ5 (Homo sapiens, UniProt P06756+P18084); test: human αVβ5 HTRF binding assay
Protocol: as §1
as §2, with “signals. […]” for “signals.”

human αVβ8 = human αVβ8 (Homo sapiens, UniProt P06756+P26012); test: human αVβ8 HTRF binding assay
Protocol: as §1
as §2, with “signals. […]” for “signals.”

Chain of human αVβ3 (P06756 31-992 limits assumed): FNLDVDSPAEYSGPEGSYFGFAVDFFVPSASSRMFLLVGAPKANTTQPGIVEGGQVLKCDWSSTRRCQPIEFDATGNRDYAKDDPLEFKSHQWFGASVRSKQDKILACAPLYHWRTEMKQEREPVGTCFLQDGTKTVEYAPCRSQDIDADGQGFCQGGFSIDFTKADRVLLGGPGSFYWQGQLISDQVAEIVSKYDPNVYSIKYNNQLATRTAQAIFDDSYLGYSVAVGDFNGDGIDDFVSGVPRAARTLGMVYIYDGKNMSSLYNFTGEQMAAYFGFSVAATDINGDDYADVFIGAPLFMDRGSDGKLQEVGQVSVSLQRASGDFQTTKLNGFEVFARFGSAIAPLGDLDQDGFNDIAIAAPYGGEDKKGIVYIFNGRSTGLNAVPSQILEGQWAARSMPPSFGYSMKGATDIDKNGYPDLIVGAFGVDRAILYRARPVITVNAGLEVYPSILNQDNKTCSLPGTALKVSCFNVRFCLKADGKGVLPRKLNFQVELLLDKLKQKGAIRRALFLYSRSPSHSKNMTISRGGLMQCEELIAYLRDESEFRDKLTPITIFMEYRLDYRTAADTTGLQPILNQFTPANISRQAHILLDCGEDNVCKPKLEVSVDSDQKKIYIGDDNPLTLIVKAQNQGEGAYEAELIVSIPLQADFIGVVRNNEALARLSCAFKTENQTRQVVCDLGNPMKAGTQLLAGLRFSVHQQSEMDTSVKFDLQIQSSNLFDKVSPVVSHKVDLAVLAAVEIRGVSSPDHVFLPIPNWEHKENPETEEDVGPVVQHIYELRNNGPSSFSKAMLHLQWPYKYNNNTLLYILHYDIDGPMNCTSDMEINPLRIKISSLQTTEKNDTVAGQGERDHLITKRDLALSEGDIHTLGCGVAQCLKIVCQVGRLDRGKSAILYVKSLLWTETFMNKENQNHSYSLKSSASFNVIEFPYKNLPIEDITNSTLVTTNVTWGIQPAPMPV
Chain of human αVβ3 (P05106 27-718 limits assumed): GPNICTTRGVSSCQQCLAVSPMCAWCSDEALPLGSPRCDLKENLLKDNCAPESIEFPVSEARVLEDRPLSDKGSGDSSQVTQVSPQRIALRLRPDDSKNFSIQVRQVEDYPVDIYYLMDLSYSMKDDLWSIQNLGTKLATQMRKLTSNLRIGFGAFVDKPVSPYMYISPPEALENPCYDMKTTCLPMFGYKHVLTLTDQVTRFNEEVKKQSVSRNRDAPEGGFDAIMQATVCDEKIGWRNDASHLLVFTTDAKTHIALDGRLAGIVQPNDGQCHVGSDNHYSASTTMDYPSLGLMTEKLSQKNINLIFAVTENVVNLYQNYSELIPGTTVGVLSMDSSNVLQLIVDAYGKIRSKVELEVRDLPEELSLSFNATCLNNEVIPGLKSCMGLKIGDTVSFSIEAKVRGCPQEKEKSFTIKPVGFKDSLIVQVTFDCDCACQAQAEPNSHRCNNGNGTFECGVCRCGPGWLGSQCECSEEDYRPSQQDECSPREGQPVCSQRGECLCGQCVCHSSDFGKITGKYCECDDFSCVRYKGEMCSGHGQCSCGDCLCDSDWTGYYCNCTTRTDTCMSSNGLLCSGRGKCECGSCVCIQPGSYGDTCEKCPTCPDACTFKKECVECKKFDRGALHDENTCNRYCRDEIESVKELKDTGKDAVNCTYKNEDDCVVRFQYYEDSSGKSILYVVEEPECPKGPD
Chain of human αVβ1 (P06756 31-992 limits assumed): as the sequence (P06756 31-992 limits assumed) above
Chain of human αVβ1 (P05556 21-728 limits assumed): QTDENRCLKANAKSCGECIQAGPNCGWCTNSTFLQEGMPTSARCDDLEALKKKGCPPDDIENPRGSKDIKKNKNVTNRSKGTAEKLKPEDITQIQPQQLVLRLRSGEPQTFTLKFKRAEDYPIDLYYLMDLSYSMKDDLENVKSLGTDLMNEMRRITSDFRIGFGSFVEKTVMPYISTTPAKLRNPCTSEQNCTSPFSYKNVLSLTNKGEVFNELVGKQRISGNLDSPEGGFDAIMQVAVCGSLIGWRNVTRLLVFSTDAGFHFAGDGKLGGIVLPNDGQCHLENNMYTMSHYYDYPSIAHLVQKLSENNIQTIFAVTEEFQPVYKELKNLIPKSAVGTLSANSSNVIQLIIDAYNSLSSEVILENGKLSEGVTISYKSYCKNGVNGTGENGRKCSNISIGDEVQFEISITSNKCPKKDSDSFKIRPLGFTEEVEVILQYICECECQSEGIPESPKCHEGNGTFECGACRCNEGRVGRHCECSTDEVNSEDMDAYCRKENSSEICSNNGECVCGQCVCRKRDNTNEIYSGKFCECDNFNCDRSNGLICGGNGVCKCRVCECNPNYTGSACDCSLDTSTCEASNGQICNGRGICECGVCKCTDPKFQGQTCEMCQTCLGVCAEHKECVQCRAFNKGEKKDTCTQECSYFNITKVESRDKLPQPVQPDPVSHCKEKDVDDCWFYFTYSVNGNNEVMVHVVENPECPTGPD
Chain of human αVβ8 (P06756 31-992 limits assumed): as the sequence (P06756 31-992 limits assumed) above
Chain of human αVβ8 (P26012 43-684 limits assumed): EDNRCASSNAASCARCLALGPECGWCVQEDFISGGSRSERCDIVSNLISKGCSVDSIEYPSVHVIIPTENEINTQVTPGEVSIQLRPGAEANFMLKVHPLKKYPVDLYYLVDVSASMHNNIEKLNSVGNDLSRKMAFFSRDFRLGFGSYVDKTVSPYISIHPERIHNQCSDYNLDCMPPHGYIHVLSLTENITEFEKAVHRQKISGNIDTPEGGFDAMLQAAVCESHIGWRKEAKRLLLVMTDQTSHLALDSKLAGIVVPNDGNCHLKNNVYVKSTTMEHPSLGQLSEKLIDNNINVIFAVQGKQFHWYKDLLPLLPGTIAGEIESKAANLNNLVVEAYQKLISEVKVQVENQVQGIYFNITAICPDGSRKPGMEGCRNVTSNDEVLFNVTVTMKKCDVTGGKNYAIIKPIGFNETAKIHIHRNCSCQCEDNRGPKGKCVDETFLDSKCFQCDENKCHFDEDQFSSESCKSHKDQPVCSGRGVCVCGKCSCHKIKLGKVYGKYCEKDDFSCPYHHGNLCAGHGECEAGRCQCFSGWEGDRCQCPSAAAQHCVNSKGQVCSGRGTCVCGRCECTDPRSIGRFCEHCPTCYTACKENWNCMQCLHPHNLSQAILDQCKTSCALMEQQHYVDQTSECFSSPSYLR
Chain of human αVβ5 (P06756 31-992 limits assumed): as the sequence (P06756 31-992 limits assumed) above
Chain of human αVβ5 (P18084 24-719 limits assumed): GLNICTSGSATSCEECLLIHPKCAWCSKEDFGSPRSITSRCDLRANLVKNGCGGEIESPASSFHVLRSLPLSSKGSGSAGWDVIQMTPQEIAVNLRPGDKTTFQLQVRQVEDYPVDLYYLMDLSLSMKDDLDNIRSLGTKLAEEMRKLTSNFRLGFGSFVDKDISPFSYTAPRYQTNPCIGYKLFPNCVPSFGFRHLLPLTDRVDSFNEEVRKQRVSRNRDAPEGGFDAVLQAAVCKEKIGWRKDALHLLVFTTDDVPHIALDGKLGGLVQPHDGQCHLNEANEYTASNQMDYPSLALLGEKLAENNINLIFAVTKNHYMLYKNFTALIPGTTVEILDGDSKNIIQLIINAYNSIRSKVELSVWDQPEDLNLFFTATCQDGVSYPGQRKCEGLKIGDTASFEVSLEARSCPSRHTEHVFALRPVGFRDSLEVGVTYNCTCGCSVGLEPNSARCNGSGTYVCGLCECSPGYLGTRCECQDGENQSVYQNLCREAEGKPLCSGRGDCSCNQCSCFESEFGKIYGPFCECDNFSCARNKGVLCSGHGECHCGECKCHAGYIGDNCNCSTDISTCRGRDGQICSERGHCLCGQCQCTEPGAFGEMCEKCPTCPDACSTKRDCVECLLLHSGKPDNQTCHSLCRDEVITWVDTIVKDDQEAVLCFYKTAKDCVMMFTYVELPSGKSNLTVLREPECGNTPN
T1 sequence (P06756 31-992 limits assumed): as the sequence (P06756 31-992 limits assumed) above
T1 sequence (P18564 22-707 limits assumed): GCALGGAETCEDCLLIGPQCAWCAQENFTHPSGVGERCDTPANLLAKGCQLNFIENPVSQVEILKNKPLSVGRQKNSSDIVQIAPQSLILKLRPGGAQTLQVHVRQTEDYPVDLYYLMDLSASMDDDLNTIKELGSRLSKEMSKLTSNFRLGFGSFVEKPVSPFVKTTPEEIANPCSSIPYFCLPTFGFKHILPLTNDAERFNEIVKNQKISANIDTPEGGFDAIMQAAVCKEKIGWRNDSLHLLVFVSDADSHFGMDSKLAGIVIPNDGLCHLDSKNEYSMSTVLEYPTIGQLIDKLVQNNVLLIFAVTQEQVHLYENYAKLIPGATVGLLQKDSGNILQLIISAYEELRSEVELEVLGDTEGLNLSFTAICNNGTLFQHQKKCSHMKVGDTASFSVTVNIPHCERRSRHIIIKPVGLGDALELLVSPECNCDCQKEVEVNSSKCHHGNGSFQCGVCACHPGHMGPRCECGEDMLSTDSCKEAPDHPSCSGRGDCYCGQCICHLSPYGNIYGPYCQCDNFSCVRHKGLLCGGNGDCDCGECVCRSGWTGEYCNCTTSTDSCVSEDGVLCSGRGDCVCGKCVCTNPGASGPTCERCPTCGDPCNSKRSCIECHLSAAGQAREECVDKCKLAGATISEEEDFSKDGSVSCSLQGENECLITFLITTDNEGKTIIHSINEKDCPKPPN

IC50 (human αVβ6)	IC50 (human αVβ1)	IC50 (human αVβ3)	IC50 (human αVβ5)	IC50 (human αVβ8)	SMILES
6 nM	270 nM	2.7 nM	0.31 nM	1500 nM	O=C(O)CC(c1cnc2ccccc2n1)n1ncc2cc(OCCc3ccc4c(n3)NCCC4)ccc21 (racemic) [Example 15, (±)-3-(Quinoxalin-2-yl)-3-(5-(2-(5,6,7,8-tetrahydro-1,8-naphthyridin-2-yl)ethoxy)-1H-indazol-1-yl)propanoic acid]
12 nM	95 nM	2.5 nM	0.38 nM	1300 nM	COc1ccc(C(CC(=O)O)n2ncc3cc(OCCc4ccc5c(n4)NCCC5)ccc32)cn1 (centres unmarked) [Example 34, 3-(6-Methoxypyridin-3-yl)-3-(5-(2-(5,6,7,8-tetrahydro-1,8-naphthyridin-2-yl)ethoxy)-1H-indazol-1-yl)propanoic acid, TFA]
5.7 nM	100 nM	1.6 nM		2300 nM	O=C(O)CC(c1cnc2ncccc2c1)n1ncc2cc(OCCc3ccc4c(n3)NCCC4)ccc21 (centres unmarked) [Example 101, 3-(1,8-Naphthyridin-3-yl)-3-(5-(2-(5,6,7,8-tetrahydro-1,8-naphthyridin-2-yl)ethoxy)-1H-indazol-1-yl)propanoic acid, 2 TFA]
4.3 nM	39 nM	2.2 nM		1300 nM	O=C(O)CC(c1cncc(N2CCCC2=O)c1)n1ncc2cc(OCCc3ccc4c(n3)NCCC4)ccc21 (centres unmarked) [Example 102, 3-(5-(2-Oxopyrrolidin-1-yl)pyridin-3-yl)-3-(5-(2-(5,6,7,8-tetrahydro-1,8-naphthyridin-2-yl)ethoxy)-1H-indazol-1-yl)propanoic acid, 2 TFA]
21 nM	93 nM	2.9 nM		5000 nM	CNc1ncc(C(CC(=O)O)n2ncc3cc(OCCc4ccc5c(n4)NCCC5)ccc32)cn1 (centres unmarked) [Example 112, 3-(2-(Methylamino)pyrimidin-5-yl)-3-(5-(2-(5,6,7,8-tetrahydro-1,8-naphthyridin-2-yl)ethoxy)-1H-indazol-1-yl)propanoic acid, 2 TFA]
3.8 nM					CN(C)c1cncc(C(CC(=O)O)n2ncc3cc(OCCc4ccc5c(n4)NCCC5)ccc32)c1 (centres unmarked) [Example 163, 3-(5-(dimethylamino)pyridin-3-yl)-3-(5-(2-(5,6,7,8-tetrahydro-1,8-naphthyridin-2-yl)ethoxy)-1H-indazol-1-yl)propanoic acid]
3200 nM					O=C(O)CC(C1CCCCC1)n1ncc2cc(OCCc3ccc4c(n3)NCCC4)ccc21 (centres unmarked) [Example 164, 3-cyclohexyl-3-(5-(2-(5,6,7,8-tetrahydro-1,8-naphthyridin-2-yl)ethoxy)-1H-indazol-1-yl)propanoic acid]
740 nM					COC(=O)NCc1cncc([C@@H](CC(=O)O)n2ncc3cc(OCCc4ccc5c(n4)NCCC5)ccc32)c1 [Example 168]
18 nM					CS(=O)(=O)NCc1cncc(C(CC(=O)O)n2ncc3cc(OCCc4ccc5c(n4)NCCC5)ccc32)c1 (centres unmarked) [Example 170]
46 nM					CC(=O)NCc1cncc(C(CC(=O)O)n2ncc3cc(OCCc4ccc5c(n4)NCCC5)ccc32)c1 (centres unmarked) [Example 171]
12 nM					O=C(O)CC(c1cnc2c(c1)CCCN2)n1ncc2cc(OCCc3ccc4c(n3)NCCC4)ccc21 (centres unmarked) [Example 172, 3-(5-(2-(5,6,7,8-Tetrahydro-1,8-naphthyridin-2-yl)ethoxy)-1H-indazol-1-yl)-3-(5,6,7,8-tetrahydro-1,8-naphthyridin-3-yl)propanoic acid]
540 nM					COc1ccc(C(CC(=O)O)n2ncc3c(CCc4ccc5c(n4)NCCC5)cccc32)cn1 (centres unmarked) [Example 174, 3-(6-Methoxypyridin-3-yl)-3-(4-(2-(5,6,7,8-tetrahydro-1,8-naphthyridin-2-yl)ethyl)-1H-indazol-1-yl)propanoic acid]
5000 nM					COc1ccc([C@@H](CC(=O)O)n2ncc3cc(OCCc4ccc5c(n4)NCCO5)ccc32)cn1 [Example 181, (R)-3-(5-(2-(3,4-dihydro-2H-pyrido[3,2-b][1,4]oxazin-6-yl)ethoxy)-1H-indazol-1-yl)-3-(6-methoxypyridin-3-yl)propanoic acid]

The next lines start with the molecule.

SMILES	IC50 (human αVβ6)	IC50 (human αVβ1)	IC50 (human αVβ3)	IC50 (human αVβ5)	IC50 (human αVβ8)
O=C(O)C[C@@H](c1cnc2ccccc2n1)n1ncc2cc(OCCc3ccc4c(n3)NCCC4)ccc21 [Example 17, (S)-3-(quinoxalin-2-yl)-3-(5-(2-(5,6,7,8-tetrahydro-1,8-naphthyridin-2-yl)ethoxy)-1H-indazol-1-yl)propanoic acid]	4.2 nM	190 nM	2.1 nM	0.25 nM	1900 nM
O=C(O)CC(c1cnc2nccnc2c1)n1ncc2cc(OCCc3ccc4c(n3)NCCC4)ccc21 (centres unmarked) [Example 95, 3-(Pyrido[2,3-b]pyrazin-7-yl)-3-(5-(2-(5,6,7,8-tetrahydro-1,8-naphthyridin-2-yl)ethoxy)-1H-indazol-1-yl)propanoic acid, 2 TFA]	30 nM	210 nM	2.4 nM		7600 nM
O=C(O)CC(c1cnc2c(c1)OCCO2)n1ncc2cc(OCCc3ccc4c(n3)NCCC4)ccc21 (centres unmarked) [Example 109, 3-(2,3-Dihydro-[1,4]dioxino[2,3-b]pyridin-7-yl)-3-(5-(2-(5,6,7,8-tetrahydro-1,8-naphthyridin-2-yl)ethoxy)-1H-indazol-1-yl)propanoic acid, 2 TFA]	15 nM	62 nM	1.3 nM		9300 nM
CCCC(CC(=O)O)n1ncc2cc(OCCc3ccc4c(n3)NCCC4)ccc21 (centres unmarked) [Example 162, 3-(5-(2-(5,6,7,8-tetrahydro-1,8-naphthyridin-2-yl)ethoxy)-1H-indazol-1-yl)hexanoic acid]	730 nM				
CS(=O)(=O)c1cncc([C@@H](CC(=O)O)n2ncc3cc(OCCc4ccc5c(n4)NCCC5)ccc32)c1 [Example 165, (R)-3-(5-(methylsulfonyl)pyridin-3-yl)-3-(5-(2-(5,6,7,8-tetrahydro-1,8-naphthyridin-2-yl)ethoxy)-1H-indazol-1-yl)propanoic acid]	540 nM				
CS(=O)(=O)c1cncc([C@H](CC(=O)O)n2ncc3cc(OCCc4ccc5c(n4)NCCC5)ccc32)c1 [Example 166, (S)-3-(5-(methylsulfonyl)pyridin-3-yl)-3-(5-(2-(5,6,7,8-tetrahydro-1,8-naphthyridin-2-yl)ethoxy)-1H-indazol-1-yl)propanoic acid]	5.2 nM				
COC(=O)NCc1cncc(C(CC(=O)O)n2ncc3cc(OCCc4ccc5c(n4)NCCC5)ccc32)c1 (centres unmarked) [Example 167, 3-(5-(((Methoxycarbonyl)amino)methyl)pyridin-3-yl)-3-(5-(2-(5,6,7,8-tetrahydro-1,8-naphthyridin-2-yl)ethoxy)-1H-indazol-1-yl)propanoic acid]	15 nM				
O=C(O)CCCNc1cncc(C(CC(=O)O)n2ncc3cc(OCCc4ccc5c(n4)NCCC5)ccc32)n1 (centres unmarked) [Example 173, 4-((6-(2-Carboxy-1-(5-(2-(5,6,7,8-tetrahydro-1,8-naphthyridin-2-yl)ethoxy)-1H-indazol-1-yl)ethyl)pyrazin-2-yl)amino)butanoic acid]	370 nM				
COc1ccc(C(CC(=O)O)n2ncc3cc(OCCc4ccc5c(n4)NCCN5C)ccc32)cn1 (centres unmarked) [Example 179, 3-(6-Methoxypyridin-3-yl)-3-(5-(2-(1-methyl-1,2,3,4-tetrahydropyrido[2,3-b]pyrazin-6-yl)ethoxy)-1H-indazol-1-yl)propanoic acid]	47 nM				
COc1ccc([C@H](CC(=O)O)n2ncc3cc(OCCc4ccc5c(n4)NCCO5)ccc32)cn1 [Example 180, (S)-3-(5-(2-(3,4-dihydro-2H-pyrido[3,2-b][1,4]oxazin-6-yl)ethoxy)-1H-indazol-1-yl)-3-(6-methoxypyridin-3-yl)propanoic acid]	15 nM				
